Laboratory results from US12178811B2, “Methods of treating depressive disorders” (priority 2019, dated 2024).
Several values for one entry are separate records, joined by “and”; a condition that tells them apart may be missing. Equal values may be shown once. Read-outs that look alike come from different tables or passages of the source.

Assays:
[1] = Blood and brain collection after forced swim test (total brain-to-plasma ratio); assay type: in vivo; conditions: CD-1, brain and plasma, mouse, immediately following the forced swim test, read-out: total brain-to-plasma ratio (B/P ratio)
Experimental: Blood and Brain Collection: Immediately following the forced swim test, all animals dosed with test article were anesthetized with isoflurane inhalant, and terminal blood collection (˜1 ml) was performed via cardiac puncture into potassium EDTA blood collection tubes (SOP ROD.14.02). Plasma was isolated from whole blood by centrifugation at 3000 rpm at 4° C. for 5 minutes. Once isolated, plasma was placed in cryovials and frozen at −80° C. until shipment for bioanalysis. Following blood collection, animals were decapitated and the whole brain collected as per standard operating procedure (SOP ROD.59). Brains were weighed, flash frozen, and stored at −80° C. until shipment.

[2] = test system: male CD-1 mice; experiment: Mouse forced swim test; assay type: in vivo; conditions: for Latency to Immobility / Time Immobile 0-2 min / Time Immobile 0-6 min / Time Immobile 2-6 min: 30 min pretreatment, individual animals; for Latency to Immobility, Average / Time Immobile 0-2 min, Average / Time Immobile 0-6 min, Average / Time Immobile 2-6 min, Average: group average N = 10
Experimental: Objective: A study was performed to assess the potential efficacy of Compound A using the mouse forced swim test. The forced swim test is a model of behavioral despair, and is sensitive to detection of various classes of antidepressant drugs (Can et al., The Mouse Forced Swim Test. J. Vis. Exp. 2012 (59), e3638, DOI:10.3791/3638). Study Design: Forty (40) male CD-1 mice received a 1-week period of acclimation to the test facility prior to the commencement of testing (events summarized in Table 1). […] All animal use procedures were performed in accordance with the principles of the Canadian Council on Animal Care (CCAC). Formulation of Compound A: Compound A (99.4% pure) was weighed (no correction for purity) and dissolved in DMSO at 20× the intended final concentration. The 20×DMSO stock solution of Compound A was diluted 20 fold with 0.5% methyl cellulose in water to achieve the final desired concentration. […] The above formulation was kept at room temperature and stirred continuously or vortex mixed prior to each dose administration. Forced swim test: Forty (40) male CD-1 mice received the appropriate dose of the vehicle, test article, or positive control (treatments summarized in Table 3). Following a pre-determined pre-treatment time (Can et al., 2012), animals were gently placed into tall glass cylinders filled with water (20-25° C.). […] The swim test involved scoring the duration of immobility. Over a 6-minute test session, the latency to first immobility was recorded (in seconds). […] Statistical Analysis: The results in Table 4 were tested for significance using T-, univariate, and Dunnett's tests as shown in Tables 5-14.

Q: For `Cc1cc(N2CCc3cc(F)ccc3C2)cc(C)c1NC(=O)CC(C)(C)C` [Compound A, N-[4-(6-fluoro-3,4-dihydro-1H-isoquinolin-2-yl)-2,6-dimethylphenyl]-3,3-dimethylbutanamide], which Kp at 36 min ([1]; 1 mg/kg IP) is on record?
A: 2.2

Q: And the Kp at 36 min ([1]; 3 mg/kg IP)?
A: 2.2

Q: What about the “Latency to Immobility” value ([2]; Compound A 1 mg/kg IP) of the same compound?
A: 77 s and 84 s and 206 s and 100 s and 70 s and 109 s and 144 s and 105 s and 130 s and 80 s

Q: What about the “Time Immobile 0-2 min” value ([2]; Compound A 1 mg/kg IP) of the same compound?
A: 32 sec and 28 sec and 0 sec (3×) and 16 sec and 20 sec (2×) and 4 sec and 7 sec

Q: And the “Time Immobile 0-6 min” value ([2]; Compound A 1 mg/kg IP)?
A: 174 s and 198 s and 33 s and 125 s and 169 s and 196 s and 134 s and 141 s and 170 s

Q: What about the “Time Immobile 2-6 min” value ([2]; Compound A 1 mg/kg IP) of the same compound?
A: 142 s and 170 s and 33 s and 109 s and 149 s and 192 s and 134 s and 189 s and 141 s and 150 s

Q: And the “Latency to Immobility, Average” value ([2]; Compound A 1 mg/kg IP)?
A: 110.5 s

Q: What about the “Time Immobile 0-2 min, Average” value ([2]; Compound A 1 mg/kg IP) of the same compound?
A: 12.7 s

Q: And the “Time Immobile 0-6 min, Average” value ([2]; Compound A 1 mg/kg IP)?
A: 153.6 s

Q: What about the “Time Immobile 2-6 min, Average” value ([2]; Compound A 1 mg/kg IP) of the same compound?
A: 140.9 s

Q: And the “Latency to Immobility” value ([2]; Compound A 3 mg/kg IP)?
A: 135 s and 165 s and 155 s and 86 s and 150 s and 127 s and 192 s and 162 s and 83 s and 105 s

Q: What about the “Time Immobile 0-2 min” value ([2]; Compound A 3 mg/kg IP) of the same compound?
A: 0 sec (7×) and 23 sec and 21 sec and 15 sec

Q: And the “Time Immobile 0-6 min” value ([2]; Compound A 3 mg/kg IP)?
A: 166 s and 144 s and 122 s and 207 s and 82 s and 146 s and 101 s and 90 s and 184 s and 181 s

Q: And the “Time Immobile 2-6 min” value ([2]; Compound A 3 mg/kg IP)?
A: 166 s and 144 s and 122 s and 184 s and 82 s and 146 s and 101 s and 90 s and 163 s

Q: What about the “Latency to Immobility, Average” value ([2]; Compound A 3 mg/kg IP) of the same compound?
A: 136.0 s

Q: And the “Time Immobile 0-2 min, Average” value ([2]; Compound A 3 mg/kg IP)?
A: 5.9 s

Q: And the “Time Immobile 0-6 min, Average” value ([2]; Compound A 3 mg/kg IP)?
A: 142.3 s

Q: What about the “Time Immobile 2-6 min, Average” value ([2]; Compound A 3 mg/kg IP) of the same compound?
A: 136.4 s

Q: And the “effect in the mouse forced swim test model (in words)” value ([2]; Tables 5-13)?
A: statistically significant effects
